According to publication PMC10044640, “Antimicrobial Peptides Designed against the Ω-Loop of Class A β-Lactamases to Potentiate the Efficacy of β-Lactam Antibiotics” (Antibiotics, 2023):
Where two headings read alike, the source gives them in different places.

Experiments:
[1] = test system: E. coli CS109 + pBAD-SHV-14; format: cell-based, Escherichia coli
SHV-14 = test: Kinetics of β-lactam hydrolysis with or without peptides; format: biochemical, Klebsiella pneumoniae; details: SHV-14 0.46 μM, no peptide, 25 °C; for Km: 10 mM Tris-HCl, 300 mM NaCl pH 7.5, 1 μg/mL BSA, substrate 20–500 μM, read-out: Km, β-lactam substrate alone; for kcat, β-lactam substrate alone: pH 7.5
Experimental: (§1) The N-terminal 6X histidine-tagged proteins (SHV-14 and TEM-1) were expressed from the respective plasmid constructs already available in the laboratory and were purified by Ni-NTA affinity chromatography using an AKTA prime plus (GE Healthcare, Piscataway, NJ, USA) as described previously. Nitrocefin hydrolysis was used to validate the β-lactamase activity of both proteins.
(§2) Assessment of enzyme activities was carried out by calculating the kinetic parameters [Michaelis–Menten constants (Km and Vmax), turn-over number (kcat), and catalytic efficiency (kcat/Km)] with various β-lactam substrates in the presence of the peptides as described previously. The hydrolysis reaction was carried out at 25 °C in 10 mM Tris-HCl, 300 mM NaCl (pH 7.5) buffer supplemented with 1 μg mL^−1 bovine serum albumin for protein stability. The enzyme concentrations (0.46 μM: SHV-14 and 0.42 μM: TEM-1) were taken to determine the initial rate constants at varying substrate concentrations (20–500 μM). The values were calculated using the online curve-fitting tool (https://www.mycurvefit.com, MyAssays Ltd., Brighton, UK, accessed on 25 May 2022).

E. coli CS109 [2] = test: HT-SPOTi MIC of β-lactams with or without peptides; format: cell-based, Escherichia coli; details: for MIC Value Antibiotics, β-lactam alone: E. coli CS109, no peptide, HT-SPOTi agar, ~10^3 CFU/well, triplicate
K. pneumoniae = test: HT-SPOTi MIC of β-lactams with or without peptides; format: cell-based, Klebsiella pneumoniae; details: for MIC Value Antibiotics, β-lactam alone: K. pneumoniae, no peptide, triplicate
[3] = test system: E. coli CS109 + pBAD-TEM1; format: cell-based, Escherichia coli; details: E. coli CS109 + pBAD-TEM1 (arabinose-induced), no peptide; HT-SPOTi
E. coli CS109 [4] = test: Broth microdilution MIC; format: cell-based, Escherichia coli; details: E. coli CS109, no peptide; broth microdilution (CLSI), MHB, ~10^5 cells/well, OD600; triplicate
TEM-1 = target: T1, TEM-1 (Escherichia coli, UniProt P62593); test: Kinetics of β-lactam hydrolysis with or without peptides; format: biochemical
T1 construct: The full-length constructs (blaSHV-14 and blaTEM-1) were cloned and expressed in pBAD18-Cam (Cam^R) vector; 6xHis (N); made in house; host or cells: E. coli BL21 (DE3) pLysS, pET28a(+)
T1 sequence (P62593 24-286 limits assumed): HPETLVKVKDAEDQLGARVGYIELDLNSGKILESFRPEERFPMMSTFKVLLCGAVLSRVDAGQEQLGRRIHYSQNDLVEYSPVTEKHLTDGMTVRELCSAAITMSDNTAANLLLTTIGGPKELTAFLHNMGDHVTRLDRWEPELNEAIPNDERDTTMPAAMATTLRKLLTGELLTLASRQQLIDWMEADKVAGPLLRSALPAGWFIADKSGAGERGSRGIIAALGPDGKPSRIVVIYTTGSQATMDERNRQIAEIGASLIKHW
Experimental: as §1, §2

[5] = test system: E. coli CS109 + pBAD-SHV-14; format: cell-based, Escherichia coli; details: E. coli CS109 + pBAD-SHV-14 (arabinose-induced), no peptide; HT-SPOTi
[6] = test system: Gram-negative strains (E. coli CS109, K. pneumoniae); test: HT-SPOTi, cephalosporins with peptides; format: cell-based, Escherichia coli; Klebsiella pneumoniae; details: strain not given
Experimental: HT-SPOTi (high-throughput spot culture growth inhibition) assay was used to evaluate the whole cell phenotypic effect of peptides against a selection of Gram-negative and acid-fast bacterial strains in the presence of β-lactam antibiotics as previously described. The distribution of the molten agar media into the 96 wells was achieved using the Multidrop Combi microplate dispenser (Thermo-Fisher Scientific). Plates were left for 5 min for the agar to set, and a diluted inoculum of bacteria was applied (2 µL of ∼10^3 CFU) into each well by either the use of a multi-channel pipettor or by using the Multidrop Combi. DMSO was taken as no antibiotic control and kanamycin as non-β-lactam drug control. Unless otherwise specified, all the experiments were performed in triplicate.
To check the inhibitory activity of peptides and comprehend particular structure–activity relationships, HT-SPOTi assay was performed. The whole-cell phenotypic effect of the 10 pentapeptides was ascertained in combination with β-lactam antibiotics in E. coli CS109 and K. pneumoniae.

M. smegmatis MC2 155 = test: HT-SPOTi MIC of β-lactams with or without peptides; format: cell-based, Mycobacterium smegmatis; details: no peptide, triplicate
[7] = test system: E. coli CS109 + pBAD-TEM1; format: cell-based, Escherichia coli; details: CS109 + pBAD-TEM1, no peptide; broth microdilution, MHB, ~10^5 cells/well, OD600
[8] = test system: CCN1CCN(C(=O)N[C@@H](C(=O)N[C@@H]2C(=O)N3[C@@H]2SC(C)(C)[C@@H]3C(=O)O)c2ccccc2)C(=O)C1=O; test: Kinetics of β-lactam hydrolysis with or without peptides; format: biochemical, Escherichia coli; details: other: TEM-1 0.42 μM, no peptide, 25 °C, 10 mM Tris-HCl, 300 mM NaCl pH 7.5, 1 μg/mL BSA, substrate 20–500 μM
Experimental: as §1, §2

[9] = test system: CC1(C)S[C@@H]2[C@H](NC(=O)[C@H](N)c3ccc(O)cc3)C(=O)N2[C@H]1C(=O)O; test: as above; format: biochemical, Escherichia coli; details: other: TEM-1 0.42 μM, no peptide, 25 °C, 10 mM Tris-HCl, 300 mM NaCl pH 7.5, 1 μg/mL BSA, substrate 20–500 μM
Experimental: as §1, §2

M. tuberculosis H37Rv = test: HT-SPOTi MIC of ampicillin with or without peptides; format: cell-based; details: Mycobacterium tuberculosis, MTB H37Rv, control row of Table S2, read-out: MIC value, control drug
[10] = TEM-1 0.42 μM, no peptide; 25 °C, pH 7.5
[11] = CS109 + pBAD-SHV-14, no peptide, broth microdilution, MHB, ~10^5 cells/well, OD600

Row | Compound | Km (SHV-14) [µM] | kcat, β-lactam substrate alone (SHV-14) [s⁻¹] | MIC Value Antibiotics, β-lactam alone (E. coli CS109 [2]) [µg/mL] | MIC Value Antibiotics, β-lactam alone (K. pneumoniae) [µg/mL] | MIC Value of Antibiotics, β-lactam alone [3] [µg/mL] | MIC Value of Antibiotics, β-lactam alone (E. coli CS109 [4]) [µg/mL] | levels of resistance to the cephalosporin with peptides [6] | other results
1 | Penicillin | 144 ± 4.43 | 586.95 ± 15.97 | 32 | 32 | 64 | 64 |  | MIC Value of Antibiotics, β-lactam alone [1]: 500 µg/mL; Km (TEM-1; TEM-1 0.42 μM, no peptide; 25 °C, 10 mM Tris-HCl, 300 mM NaCl pH 7.5, 1 μg/mL BSA; substrate 20–500 μM; read-out: Km, β-lactam substrate alone): 67.2 ± 4.43 µM; kcat, β-lactam substrate alone (TEM-1; [10]): 386.95 ± 15.97 s⁻¹; MIC Value of Antibiotics, β-lactam alone [5]: 250 µg/mL
2 | N[C@@H](C(=O)N[C@@H]1C(=O)N2C(C(=O)O)=C(Cl)CS[C@H]12)c1ccccc1 [cefaclor] |  |  |  |  |  |  | remained unaltered | 
3 | CC1(C)S[C@@H]2[C@H](NC(=O)[C@H](N)c3ccc(O)cc3)C(=O)N2[C@H]1C(=O)O [Amx, Amoxicillin] | 112 ± 12.2 | 416.95 ± 5.02 | 8 | 64 | 32 | 16 |  | MIC Value Antibiotics, β-lactam alone (M. smegmatis MC2 155): 2 µg/mL; MIC Value of Antibiotics, β-lactam alone [7]: 64 µg/mL
4 | CC(C)(O/N=C(\C(=O)N[C@@H]1C(=O)N2C(C(=O)[O-])=C(C[n+]3ccccc3)CS[C@H]12)c1csc(N)n1)C(=O)O [ceftazidime] |  |  |  |  |  |  | remained unaltered | 
5 | CCN1CCN(C(=O)N[C@@H](C(=O)N[C@@H]2C(=O)N3C(C(=O)O)=C(CSc4nnnn4C)CS[C@H]23)c2ccc(O)cc2)C(=O)C1=O [cefoperazone] |  |  |  |  |  |  | remained unaltered | 
6 | CO/N=C(\C(=O)N[C@@H]1C(=O)N2C(C(=O)[O-])=C(C[N+]3(C)CCCC3)CS[C@H]12)c1csc(N)n1 [cefepime] |  |  |  |  |  |  | remained unaltered | 
7 | CCN1CCN(C(=O)N[C@@H](C(=O)N[C@@H]2C(=O)N3[C@@H]2SC(C)(C)[C@@H]3C(=O)O)c2ccccc2)C(=O)C1=O [Pip, Piperacillin] | 98.7 ± 12.2 | 432.09 ± 5.97 | 16 | 64 | 64 | 16 |  | MIC Value of Antibiotics, β-lactam alone [1, 11]: 125 µg/mL; MIC Value Antibiotics, β-lactam alone (M. smegmatis MC2 155): >250 µg/mL; MIC Value of Antibiotics, β-lactam alone [5]: 64 µg/mL; MIC Value of Antibiotics, β-lactam alone [7]: 125 µg/mL
8 | CC1=C(C(=O)O)N2C(=O)[C@@H](NC(=O)[C@H](N)c3ccc(O)cc3)[C@H]2SC1 [cefadroxil] |  |  |  |  |  |  | remained unaltered | 
9 | TEM-1 (Escherichia coli) |  |  |  |  |  |  |  | Km [8]: 136.32 ± 12.16 µM; kcat [8]: 331 ± 12.2 s⁻¹; Km [9]: 105.09 ± 12.16 µM; kcat [9]: 427 ± 21 s⁻¹
10 | CC1(C)S[C@@H]2[C@H](NC(=O)[C@H](N)c3ccccc3)C(=O)N2[C@H]1C(=O)O [Amp, Ampicillin] | 187 ± 12.2 | 644.95 ± 10.97 | 4 | 32 | 16 | 8 |  | MIC Value of Antibiotics, β-lactam alone [1, 11]: 64 µg/mL; MIC Value Antibiotics, β-lactam alone (M. smegmatis MC2 155): 4 µg/mL; kcat, β-lactam substrate alone (TEM-1; [10]): 290 ± 85.55 s⁻¹; Km (TEM-1; read-out: Km, β-lactam substrate alone; TEM-1 0.42 μM, no peptide; 25 °C, 10 mM Tris-HCl, 300 mM NaCl pH 7.5, 1 μg/mL BSA; substrate 20–500 μM): 66 ± 12.2 µM; MIC Value of Antibiotics, β-lactam alone [5]: 32 µg/mL; MIC Value of Antibiotics, β-lactam alone [7]: 32 µg/mL
11 | NNC(=O)c1ccncc1 [Isoniazid] |  |  |  |  |  |  |  | MIC (M. tuberculosis H37Rv): 2 µg/mL
12 | NC[C@H]1O[C@H](O[C@H]2[C@H](O)[C@@H](O[C@H]3O[C@H](CO)[C@@H](O)[C@H](N)[C@H]3O)[C@H](N)C[C@@H]2N)[C@H](O)[C@@H](O)[C@@H]1O [Kanamycin] |  |  |  |  |  |  |  | MIC Value, non-β-lactam drug control (E. coli CS109 [2]; Table 4 control row, construct not given, one value under each column Pen, Amp, Amx, Pip, HT-SPOTi): 64 µg/mL; MIC Value, non-β-lactam drug control (K. pneumoniae; Table 3b control row, one value printed under each column Pen, Amp, Amx, Pip): 64 µg/mL
